PubChem BioAssay (NCI)
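Assay format: 96-well plates, 48-hour exposure. GI50 = concentration required for 50% inhibition of growth. TGI is the concentration that stops growth completely.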

Legend:
Assay in all cases: NCI-60 cell line screen, 48 h
786-0 renal = tested on: 786-0 renal
A498 renal = tested on: A498 renal
A549 NSCLC = tested on: A549 NSCLC
ACHN renal = tested on: ACHN renal
BT-549 breast = tested on: BT-549 breast
CAKI-1 renal = tested on: CAKI-1 renal
CCRF-CEM leukemia = tested on: CCRF-CEM leukemia
COLO 205 colon = tested on: COLO 205 colon
DU-145 prostate = tested on: DU-145 prostate
EKVX NSCLC = tested on: EKVX NSCLC
HCC-2998 colon = tested on: HCC-2998 colon
HCT-116 colon = tested on: HCT-116 colon
HCT-15 colon = tested on: HCT-15 colon
HL-60(TB) leukemia = tested on: HL-60(TB) leukemia
HOP-62 NSCLC = tested on: HOP-62 NSCLC
HOP-92 NSCLC = tested on: HOP-92 NSCLC
HS 578T breast = tested on: HS 578T breast
HT29 colon = tested on: HT29 colon
IGROV1 ovarian = tested on: IGROV1 ovarian
K-562 leukemia = tested on: K-562 leukemia
KM12 colon = tested on: KM12 colon
LOX IMVI melanoma = tested on: LOX IMVI melanoma
M14 melanoma = tested on: M14 melanoma
MALME-3M melanoma = tested on: MALME-3M melanoma
MCF7 breast = tested on: MCF7 breast
MDA-MB-231 breast = tested on: MDA-MB-231 breast
MDA-MB-435 = tested on: MDA-MB-435
MDA-MB-468 breast = tested on: MDA-MB-468 breast
MOLT-4 leukemia = tested on: MOLT-4 leukemia
NCI-H226 lung = tested on: NCI-H226 lung
NCI-H23 lung = tested on: NCI-H23 lung
NCI-H460 lung = tested on: NCI-H460 lung
NCI-H522 lung = tested on: NCI-H522 lung
NCI/ADR-RES ovarian = tested on: NCI/ADR-RES ovarian
OVCAR-3 ovarian = tested on: OVCAR-3 ovarian
OVCAR-4 ovarian = tested on: OVCAR-4 ovarian
OVCAR-5 ovarian = tested on: OVCAR-5 ovarian
OVCAR-8 ovarian = tested on: OVCAR-8 ovarian
PC-3 prostate = tested on: PC-3 prostate
RPMI-8226 leukemia = tested on: RPMI-8226 leukemia
RXF 393 renal = tested on: RXF 393 renal
SF-268 CNS = tested on: SF-268 CNS
SF-295 CNS = tested on: SF-295 CNS
SF-539 CNS = tested on: SF-539 CNS
SK-MEL-2 melanoma = tested on: SK-MEL-2 melanoma
SK-MEL-28 melanoma = tested on: SK-MEL-28 melanoma
SK-MEL-5 melanoma = tested on: SK-MEL-5 melanoma
SK-OV-3 ovarian = tested on: SK-OV-3 ovarian
SN12C renal = tested on: SN12C renal
SNB-19 CNS = tested on: SNB-19 CNS
SNB-75 CNS = tested on: SNB-75 CNS
SR leukemia = tested on: SR leukemia
SW-620 colon = tested on: SW-620 colon
T-47D breast = tested on: T-47D breast
TK-10 renal = tested on: TK-10 renal
U251 CNS = tested on: U251 CNS
UACC-257 melanoma = tested on: UACC-257 melanoma
UACC-62 melanoma = tested on: UACC-62 melanoma
UO-31 renal = tested on: UO-31 renal

Structure (SMILES): Brc1ccc(N/N=C/c2c[nH]c3ccccc23)nc1
- GI50 (786-0 renal): 13.2 µM
- TGI (786-0 renal): > 100 µM
- GI50 (A498 renal): 35.2 µM
- TGI (A498 renal): > 100 µM
- GI50 (A549 NSCLC): 12.6 µM
- TGI (A549 NSCLC): > 100 µM
- GI50 (ACHN renal): 11.6 µM
- TGI (ACHN renal): > 100 µM
- GI50 (BT-549 breast): 0.17 µM
- TGI (BT-549 breast): > 100 µM
- GI50 (CAKI-1 renal): 4.35 µM
- TGI (CAKI-1 renal): > 100 µM
- GI50 (CCRF-CEM leukemia): 0.839 µM
- TGI (CCRF-CEM leukemia): > 100 µM
- GI50 (COLO 205 colon): > 100 µM
- TGI (COLO 205 colon): > 100 µM
- GI50 (DU-145 prostate): 20.5 µM
- TGI (DU-145 prostate): > 100 µM
- GI50 (EKVX NSCLC): 4.44 µM
- TGI (EKVX NSCLC): > 100 µM
- GI50 (HCC-2998 colon): 9.35 µM
- TGI (HCC-2998 colon): > 100 µM
- GI50 (HCT-116 colon): 13.2 µM
- TGI (HCT-116 colon): > 100 µM
- GI50 (HCT-15 colon): 9.19 µM
- TGI (HCT-15 colon): > 100 µM
- GI50 (HL-60(TB) leukemia): 2.81 µM
- TGI (HL-60(TB) leukemia): > 100 µM
- GI50 (HOP-62 NSCLC): 11 µM
- TGI (HOP-62 NSCLC): 59.3 µM
- GI50 (HOP-92 NSCLC): 6.66 µM
- TGI (HOP-92 NSCLC): 57.6 µM
- GI50 (HS 578T breast): 7.45 µM
- TGI (HS 578T breast): > 100 µM
- GI50 (HT29 colon): 29.4 µM
- TGI (HT29 colon): > 100 µM
- GI50 (IGROV1 ovarian): 1.63 µM
- TGI (IGROV1 ovarian): > 100 µM
- GI50 (K-562 leukemia): 4.05 µM
- TGI (K-562 leukemia): > 100 µM
- GI50 (KM12 colon): 3.68 µM
- TGI (KM12 colon): > 100 µM
- GI50 (LOX IMVI melanoma): 6.47 µM
- TGI (LOX IMVI melanoma): > 100 µM
- GI50 (M14 melanoma): 78.5 µM
- TGI (M14 melanoma): > 100 µM
- GI50 (MALME-3M melanoma): > 100 µM
- TGI (MALME-3M melanoma): > 100 µM
- GI50 (MCF7 breast): 2.43 µM
- TGI (MCF7 breast): > 100 µM
- GI50 (MDA-MB-231 breast): 2.2 µM
- TGI (MDA-MB-231 breast): 8.47 µM
- GI50 (MDA-MB-435): 79.4 µM
- TGI (MDA-MB-435): > 100 µM
- GI50 (MDA-MB-468 breast): 1.88 µM
- TGI (MDA-MB-468 breast): 6.1 µM
- GI50 (MOLT-4 leukemia): 2.67 µM
- TGI (MOLT-4 leukemia): > 100 µM
- GI50 (NCI-H226 lung): 3.78 µM
- TGI (NCI-H226 lung): > 100 µM
- GI50 (NCI-H23 lung): > 100 µM
- TGI (NCI-H23 lung): > 100 µM
- GI50 (NCI-H460 lung): 14.1 µM
- TGI (NCI-H460 lung): > 100 µM
- GI50 (NCI-H522 lung): 2.53 µM
- TGI (NCI-H522 lung): 28 µM
- GI50 (NCI/ADR-RES ovarian): 7.03 µM
- TGI (NCI/ADR-RES ovarian): > 100 µM
- GI50 (OVCAR-3 ovarian): 8.63 µM
- TGI (OVCAR-3 ovarian): > 100 µM
- GI50 (OVCAR-4 ovarian): 77.9 µM
- TGI (OVCAR-4 ovarian): > 100 µM
- GI50 (OVCAR-5 ovarian): > 100 µM
- TGI (OVCAR-5 ovarian): > 100 µM
- GI50 (OVCAR-8 ovarian): 26.3 µM
- TGI (OVCAR-8 ovarian): > 100 µM
- GI50 (PC-3 prostate): 4.83 µM
- TGI (PC-3 prostate): > 100 µM
- GI50 (RPMI-8226 leukemia): 3.07 µM
- TGI (RPMI-8226 leukemia): > 100 µM
- GI50 (RXF 393 renal): 2.5 µM
- TGI (RXF 393 renal): 80.9 µM
- GI50 (SF-268 CNS): 4.15 µM
- TGI (SF-268 CNS): > 100 µM
- GI50 (SF-295 CNS): 19.1 µM
- TGI (SF-295 CNS): > 100 µM
- GI50 (SF-539 CNS): 4.7 µM
- TGI (SF-539 CNS): > 100 µM
- GI50 (SK-MEL-2 melanoma): > 100 µM
- TGI (SK-MEL-2 melanoma): > 100 µM
- GI50 (SK-MEL-28 melanoma): > 100 µM
- TGI (SK-MEL-28 melanoma): > 100 µM
- GI50 (SK-MEL-5 melanoma): 25.6 µM
- TGI (SK-MEL-5 melanoma): > 100 µM
- GI50 (SK-OV-3 ovarian): 56.2 µM
- TGI (SK-OV-3 ovarian): > 100 µM
- GI50 (SN12C renal): 2.28 µM
- TGI (SN12C renal): > 100 µM
- GI50 (SNB-19 CNS): 11.4 µM
- TGI (SNB-19 CNS): 46.4 µM
- GI50 (SNB-75 CNS): 0.385 µM
- TGI (SNB-75 CNS): 97.9 µM
- GI50 (SR leukemia): 2.28 µM
- TGI (SR leukemia): > 100 µM
- GI50 (SW-620 colon): 76 µM
- TGI (SW-620 colon): > 100 µM
- GI50 (T-47D breast): 3.97 µM
- TGI (T-47D breast): > 100 µM
- GI50 (TK-10 renal): 48 µM
- TGI (TK-10 renal): > 100 µM
- GI50 (U251 CNS): 21 µM
- TGI (U251 CNS): > 100 µM
- GI50 (UACC-257 melanoma): > 100 µM
- TGI (UACC-257 melanoma): > 100 µM
- GI50 (UACC-62 melanoma): 37.3 µM
- TGI (UACC-62 melanoma): > 100 µM
- GI50 (UO-31 renal): 1.46 µM
- TGI (UO-31 renal): > 100 µM
